How the values were obtained:
[1] = Half life in human liver microsomes; type: ADME, Microsome
[2] = Permeability of the compound in human Caco2 cells; type: ADME, cell-based; settings: Caco-2, read-out: permeability
Hepatitis C virus = assay: Antiviral activity against Hepatitis C virus infected in human […] cells after 72 hrs by luciferase reporter gene assay; type: functional, organism-based, Hepacivirus hominis
[3] = Inhibition of Hepatitis C virus genotype 1 NS3 protease

C=C[C@@H]1C[C@]1(NC(=O)[C@@H]1C[C@@H](n2cnc(-c3ccccc3)c2)CN1C(=O)[C@@H](NC(=O)OC1CCCC1)C(C)(C)C)C(=O)NS(=O)(=O)C1CC1
half-life [1]: 3.68 h | Papp [2]: 0.2 ×10⁻⁶ cm/s | EC50 (Hepatitis C virus): 1340 nM | IC50 [3]: 1.8 nM

C=C[C@@H]1C[C@]1(NC(=O)[C@@H]1C[C@@H](n2cc(-c3ccccc3)c(C)n2)CN1C(=O)[C@@H](NC(=O)OC1CCCC1)C(C)(C)C)C(=O)NS(=O)(=O)C1CC1
half-life [1]: 0.1 h | Papp [2]: 0.7 ×10⁻⁶ cm/s | EC50 (Hepatitis C virus): 320 nM | IC50 [3]: 2.5 nM

C=C[C@@H]1C[C@]1(NC(=O)[C@@H]1C[C@@H](c2nc(-c3ccccc3)cs2)CN1C(=O)[C@@H](NC(=O)OC1CCCC1)C(C)(C)C)C(=O)NS(=O)(=O)C1CC1
half-life [1]: 2.38 h | Papp [2]: 4.4 ×10⁻⁶ cm/s | EC50 (Hepatitis C virus): 580 nM | IC50 [3]: 3.2 nM

C=C[C@@H]1C[C@]1(NC(=O)[C@@H]1C[C@@H](c2csc(-c3ccccc3)n2)CN1C(=O)[C@@H](NC(=O)OC1CCCC1)C(C)(C)C)C(=O)NS(=O)(=O)C1CC1
half-life [1]: 2.25 h | Papp [2]: 4.6 ×10⁻⁶ cm/s | EC50 (Hepatitis C virus): 175 nM | IC50 [3]: 2.7 nM

C=C[C@@H]1C[C@]1(NC(=O)[C@@H]1C[C@@H](c2csc(-c3cccnc3)n2)CN1C(=O)[C@@H](NC(=O)OC1CCCC1)C(C)(C)C)C(=O)NS(=O)(=O)C1CC1
EC50 (Hepatitis C virus): 915 nM | IC50 [3]: 12 nM

C=C[C@@H]1C[C@]1(NC(=O)[C@@H]1C[C@@H](c2csc(-c3ccc(OC)cc3)n2)CN1C(=O)[C@@H](NC(=O)OC1CCCC1)C(C)(C)C)C(=O)NS(=O)(=O)C1CC1
EC50 (Hepatitis C virus): 530 nM | IC50 [3]: 5.2 nM

C=C[C@@H]1C[C@]1(NC(=O)[C@@H]1C[C@@H](c2csc(-c3cccc(OC)c3)n2)CN1C(=O)[C@@H](NC(=O)OC1CCCC1)C(C)(C)C)C(=O)NS(=O)(=O)C1CC1
EC50 (Hepatitis C virus): 140 nM | IC50 [3]: 3.4 nM

C=C[C@@H]1C[C@]1(NC(=O)[C@@H]1C[C@@H](c2csc(-c3ccccc3OC)n2)CN1C(=O)[C@@H](NC(=O)OC1CCCC1)C(C)(C)C)C(=O)NS(=O)(=O)C1CC1
EC50 (Hepatitis C virus): 35 nM | IC50 [3]: 0.74 nM

C=C[C@@H]1C[C@]1(NC(=O)[C@@H]1C[C@@H](c2csc(-c3ccccc3OCC)n2)CN1C(=O)[C@@H](NC(=O)OC1CCCC1)C(C)(C)C)C(=O)NS(=O)(=O)C1CC1
EC50 (Hepatitis C virus): 37 nM | IC50 [3]: 0.78 nM

C=C[C@@H]1C[C@]1(NC(=O)[C@@H]1C[C@@H](c2csc(-c3ccccc3C)n2)CN1C(=O)[C@@H](NC(=O)OC1CCCC1)C(C)(C)C)C(=O)NS(=O)(=O)C1CC1
EC50 (Hepatitis C virus): 800 nM | IC50 [3]: 6 nM

C=C[C@@H]1C[C@]1(NC(=O)[C@@H]1C[C@@H](c2csc(-c3ccccc3F)n2)CN1C(=O)[C@@H](NC(=O)OC1CCCC1)C(C)(C)C)C(=O)NS(=O)(=O)C1CC1
EC50 (Hepatitis C virus): 235 nM | IC50 [3]: 1.8 nM

C=C[C@@H]1C[C@]1(NC(=O)[C@@H]1C[C@@H](c2csc(-c3cccc(OC)c3OC)n2)CN1C(=O)[C@@H](NC(=O)OC1CCCC1)C(C)(C)C)C(=O)NS(=O)(=O)C1CC1
EC50 (Hepatitis C virus): 240 nM | IC50 [3]: 4.1 nM

C=C[C@@H]1C[C@]1(NC(=O)[C@@H]1C[C@@H](c2csc(-c3ccc(OC)cc3OC)n2)CN1C(=O)[C@@H](NC(=O)OC1CCCC1)C(C)(C)C)C(=O)NS(=O)(=O)C1CC1
EC50 (Hepatitis C virus): 89 nM | IC50 [3]: 2.2 nM

C=C[C@@H]1C[C@]1(NC(=O)[C@@H]1C[C@@H](c2csc(-c3c(OC)cccc3OC)n2)CN1C(=O)[C@@H](NC(=O)OC1CCCC1)C(C)(C)C)C(=O)NS(=O)(=O)C1CC1
EC50 (Hepatitis C virus): 2200 nM | IC50 [3]: 17 nM

C=C[C@@H]1C[C@]1(NC(=O)[C@@H]1C[C@@H](c2csc(-c3cc(OC)ccc3OC)n2)CN1C(=O)[C@@H](NC(=O)OC1CCCC1)C(C)(C)C)C(=O)NS(=O)(=O)C1CC1
half-life [1]: 1.15 h | Papp [2]: 7 ×10⁻⁶ cm/s | EC50 (Hepatitis C virus): 16 nM | IC50 [3]: 0.9 nM | Ki [3]: 0.23 nM

C=C[C@@H]1C[C@]1(NC(=O)[C@@H]1C[C@@H](c2csc(-c3cc(C)ccc3OC)n2)CN1C(=O)[C@@H](NC(=O)OC1CCCC1)C(C)(C)C)C(=O)NS(=O)(=O)C1CC1
EC50 (Hepatitis C virus): 27 nM | IC50 [3]: 1.7 nM

C=C[C@@H]1C[C@]1(NC(=O)[C@@H]1C[C@@H](c2csc(-c3cc(F)ccc3OC)n2)CN1C(=O)[C@@H](NC(=O)OC1CCCC1)C(C)(C)C)C(=O)NS(=O)(=O)C1CC1
EC50 (Hepatitis C virus): 28 nM | IC50 [3]: 1.1 nM

C=C[C@@H]1C[C@]1(NC(=O)[C@@H]1C[C@@H](c2csc(-c3cc(OC)ccc3OC)n2)CN1C(=O)[C@@H](NC(=O)OC1CCCC1)C(C)(C)C)C(=O)NS(=O)(=O)C1(C)CC1
half-life [1]: 0.95 h | Papp [2]: 12 ×10⁻⁶ cm/s | EC50 (Hepatitis C virus): 9 nM | IC50 [3]: 1.1 nM

C=C[C@@H]1C[C@]1(NC(=O)[C@@H]1C[C@@H](n2cc(-c3ccccc3)nn2)CN1C(=O)[C@@H](NC(=O)OC1CCCC1)C(C)(C)C)C(=O)NS(=O)(=O)C1CC1
half-life [1]: 1.57 h | Papp [2]: 1.1 ×10⁻⁶ cm/s | EC50 (Hepatitis C virus): 430 nM | IC50 [3]: 2.7 nM
